{"source": "patent US20050277626A1", "about": "“Methods and compositions for treatment of nicotine dependence and dementias” (priority 2004, published 2005)", "origin": "cited, not measured here", "key": {"[1]": {"conditions": "schizophrenic patients"}, "[2]": {"test_system": "neuroblastoma cell lines"}, "[3]": {"conditions": "400 mg per day"}}, "data": [{"smiles": "COc1cc2c(cc1OC)C(=O)C(CC1CCN(Cc3ccccc3)CC1)C2", "note": "(stereo not shown) [donepazil]", "values": [{"measurement": "cognitive effect, blinded placebo controlled study", "setting": "[1]", "value": "no effect"}, {"measurement": "cognitive effect, open label studies", "setting": "[1]", "value": "modest cognitive improvements"}]}, {"smiles": "COc1ccc2c3c1O[C@H]1C[C@@H](O)C=C[C@@]31CCN(C)C2", "note": "[galantamine]", "values": [{"measurement": "apoptosis induced by beta-amyloid and thapsigargin", "setting": "[2]", "value": "inhibit apoptosis induced by beta-amyloid and thapsigargin in a concentration dependent manner"}]}, {"smiles": "O=C(NCCN1CCOCC1)c1ccc(Cl)cc1", "note": "[moclobemide]", "values": [{"measurement": "efficacy for smoking cessation", "setting": "[3]", "value": "demonstrated efficacy"}]}]}
